Laboratory results as given in US11912718B2, “Solid forms of a thienopyrimidinedione ACC inhibitor and methods for production thereof” (Gilead Apollo, LLC, priority 2016, dated 2024).
pIC50: −log10 of the molar value. Values after ≈ are worked out from the molar mass of the structure shown.

Key:
[1] = test system: ACC2; conditions: enzyme isolated from rat, mouse, monkey and human; cited from earlier work
[2] = test system: ACC1; conditions: enzyme isolated from rat, mouse, monkey and human; cited from earlier work
[3] = Competitive slurrying of crystal forms; assay type: physicochemical
[4] = Log P and Log D determination (potentiometric); assay type: physicochemical; conditions: octanol/water, pH 7.4
Protocol: Log P analysis was performed using a potentiometric (pH-metric) method. The sample was titrated in various ratios of octanol/water in two titrations covering the pH range from 1.9 to 12.0 at concentrations of 1.0 to 0.6 mM. The shift of the aqueous pKa in the presence of octanol was used to determine log P of the neutral and anionic species. From this information a lipophilicity profile was constructed, such that that log D at a given pH could be determined.

[5] = Dynamic vapor sorption (DVS); assay type: physicochemical; conditions: for state or form of the material after the DVS experiment: post DVS, XRPD
From the text: For DVS analysis as discussed in Example 8, approximately 10 milligrams of sample was placed into a mesh vapor sorption balance pan and loaded into a DVS-1 dynamic vapor sorption balance (Surface Measurement Systems). The sample was subjected to a ramping profile from 0-90% relative humidity (RH) at 10% increments, maintaining the sample at each step until a stable weight had been achieved (99.5% step completion). After completion of the sorption cycle, the sample was dried using the reverse procedure, lowering the RH to 0%. The weight change during the sorption/desorption cycles was plotted.
For Examples 2, 5, 7, 9, and 13 to 18, hygroscopicity was studied using dynamic vapor sorption (DVS, TA Q5000 SA, TA Instruments, New Castle, Del. or DVS, DVS Intrinsic, Surface Measurement Systems, London, UK). A sample (2-20 mg) was placed in an aluminum DVS pan and loaded on the sample side of the twin pan balance. The water sorption and desorption were studied as a function of relative humidity (RH) at 25° C. In 10% RH increments, the relative humidity was increased from 5% RH to 95% RH and then decreased back to 5%. […] Data analysis was performed using Universal Analysis 2000 Version 4.7A (TA Instruments, New Castle, Del.) for TA DVS runs and Microsoft Excel for SMS DVS runs.

[6] = Aqueous solubility; assay type: physicochemical
Protocol: Purity and concentration analyses were carried out using the following method: […]

[7] = Prolonged exposure to water (XRPD); assay type: physicochemical
[8] = Storage stability at 40° C. and 75% RH; assay type: physicochemical; conditions: 7 days at 40° C. and 75% RH
Protocol: 100 milligrams of Form IV of Compound 1, prepared according to the method of Example 5, was heated to 80° C. in an oven. Form VII was confirmed to be a desolvated form of Form IV, produced by drying the methanol solvate Form IV. […] Differential scanning calorimetry (DSC) results (FIG. 40) were consistent with thermogravimetric analysis. […] (peak at 141.4° C.), with the peak of the exotherm at 151.6° C. […] (peak at 195.0° C.). A smaller endotherm with a peak at 207.0° C. was likely to indicate formation of a higher melting crystalline form. […] The uptake between 40 and 70% RH could potentially be indicative of hydrate formation (tentatively assigned the name Form IX). […] NMR and IR data confirmed the structural integrity of Compound 1 present.

[9] = biological target: ACC1 (Homo sapiens, UniProt Q13085); experiment: Inhibition of ACC1 by metabolites of Compound 1; assay type: biochemical
[10] = acetone, acetonitrile:water (10%), ethanol, ethyl acetate, ambient temperature and 60° C., XRPD and DSC

For `O=C(c1c2ccccc2cc2ccccc12)N1CCC(N2CCC[C@@H](C(=O)N3CCOCC3)C2)CC1` [CP-640186], the pIC50 [1] is listed as about 7.22 and the pIC50 [2] is listed as about 7.22.
With `COc1ccccc1[C@H](Cn1c(=O)n(C(C)(C)C(=O)O)c(=O)c2c(C)c(-c3ncco3)sc21)OC1CCOCC1` [Form I] the relative thermodynamic stability ([3]; between 22-60° C.) was “more thermodynamically stable form”, the logD [4] was 1.06 and the “weight gain (moisture sorption)” value ([5]; at about 95% RH) was about 0.45%. The “state or form of the material after the DVS experiment” value [5] was “had not changed forms” and the solubility ([6]; aqueous medium, aqueous buffer, pH 5.5 and below) was under 10 µg/mL.
In the case of `COc1ccccc1[C@H](Cn1c(=O)n(C(C)(C)C(=O)O)c(=O)c2c(C)c(-c3ncco3)sc21)OC1CCOCC1` [Form VIII], the “result of competitive slurrying with Form I” value (“result” for short) ([3]; 1:1 ratio in 6:4 ethanol:water, room temperature, about two weeks, XRPD) was “conversion to Form I” and the “result” value [3, 10] was “conversion to Form I”.
For `COc1ccccc1[C@H](Cn1c(=O)n(C(C)(C)C(=O)O)c(=O)c2c(C)c(-c3ncco3)sc21)OC1CCOCC1` [Form VII], the “result” value [3, 10] was “conversion to Form I”, the “form change on prolonged exposure to water” value [7] was “conversion of Form VII to Form I” and the “water uptake (DVS)” value ([5]; at 90% RH) was over 4%. For the same compound, the “state or form of the material after the DVS experiment” value [5] was “no change in form”, the “chemical and physical stability on storage” value [8] was “chemically and physically stable” and the purity after storage [8] was 99.85%. The solubility ([6]; water) was 109 µg/mL (≈ 191 µM).
`COc1ccccc1[C@H](Cn1c(=O)n(C(C)(C)C(=O)OC2OC(C(=O)O)C(O)C(O)C2O)c(=O)c2c(C)c(-c3ncco3)sc21)OC1CCOCC1` (stereo partly drawn) [M+glucuronide conjugate] showed a pIC50 [9] of 8.30.
Work on `Cc1c(-c2ncco2)sc2c1c(=O)n(C(C)(C)C(=O)O)c(=O)n2C[C@H](OC1CCOCC1)c1ccccc1O` [M-CH3 metabolite] yielded a pIC50 [9] of 7.66.
